Laboratory results taken from patent publication US12037345B2, “Heterobicyclic compounds for inhibiting the activity of SHP2” (TAIHO PHARMACEUTICAL CO., LTD., priority 2018, dated 2024).

Assays:
SHP2 = SHP2 (Homo sapiens (Human), UniProt Q06124); test: SHP2 Biochemical Assay (DiFMUP conversion, pIRS1-activated); settings: Table 19; head prints unit as "-M"
Procedure: SHP2 activity was monitored by measuring the conversion of the surrogate substrate 6,8-difluoromethylumbelliferyl phosphate (DiFMUP) to the fluorescent product, 6,8-difluoromethylumbelliferone (DiFMU).
SHP2 was pre-incubated with test compounds and the activating peptide pIRS1 (H2N-LN(pY)IDLDLV-(PEG)8-LST(pY)ASINFQK-amide) for 30 min, prior to addition of the 6,8-difluoromethylumbelliferyl phosphate (DiFMUP), (Thermo Fisher D6567). Final assay concentrations were 10 pM SHP2, […] pIRS1 peptide, 50 μM DiFMUP, 25 mM Bis-Tris propane, pH 7.0, 150 mM NaCl, 0.05% (v/v) Tween-20, 0.5 mM TCEP and 5% (v/v) DMSO. Rates of reaction were then measured over 30 min by monitoring fluorescence on a BMG Pherastar reader at excitation 360 nm/emission 450 nm. IC50 values were calculated in singlicate from the normalized dose-response plots using four parameter logistic curve fit. The Experiment for each compound was carried out in one time or multiple times, and the IC50 values were shown as a single value (for a compound measured in a single experiment) or an average value (for a compound measured in multiple experiments).

[1] = system: pERK (phospho-p44/42 ERK) in HCC827 cells; test: Cellular pERK Inhibition Assay, Method A (In-Cell Western); assay type: cell-based; settings: Homo sapiens, Table 19, head prints unit as "-M", read-out: pERK (IC50) Method A
Procedure: Cellular pERK Inhibition Assay
pERK levels were determined using the In-Cell Western assay. HCC827 cells (ATCC, Manassas, USA) were seeded into 384-well plates at a density of 1×10^4 cells/well in RPMI1640 medium supplemented with 10% FBS and incubated 24h. Compounds were diluted first in DMSO and then into serum-free medium, before being added to cells in quadruplicate to give a final concentration of 0.2% DMSO. Plates were incubated at 37° C. for the indicated time in a humidified atmosphere of 5% CO2 in air.
Following compound treatment, cells were fixed with formalin neutral buffer solution for 20 minutes at room temperature. Plates were washed three times with 0.1% Triton-X in PBS and cells were blocked for 1 hour with Odyssey blocking buffer (LI-COR, #927-40000). After shaking out blocking buffer, cells were incubated with phospho-p44/42 ERK antibody (Cell Signalling Technology, #4370, 1:200) diluted in Odyssey blocking buffer at 4° C. overnight. Plates were washed again and cells were incubated for 1 hour with Goat anti-Rabbit […] (LI-COR, #926-32211, 1:800) diluted in Odyssey blocking buffer. After washing and removing wash solution completely using a centrifuge machine, cells were scanned on the Odyssey (LI-COR), following the manufacturer's instructions. The average signal from blank wells (no cells added) was subtracted from the signals from each sample well. Levels of pERK were then expressed as percent of control, using DMSO treated samples as control. The relative IC50 values were calculated in quadruplicate from the normalized dose-response plots using four parameter logistic curve fit. The Experiment for each compound was carried out in one time or multiple times, and the IC50 values were shown as a single value (for a compound measured in a single experiment) or an average value (for a compound measured in multiple experiments).

SHP2, sequence (Q06124 whole entry): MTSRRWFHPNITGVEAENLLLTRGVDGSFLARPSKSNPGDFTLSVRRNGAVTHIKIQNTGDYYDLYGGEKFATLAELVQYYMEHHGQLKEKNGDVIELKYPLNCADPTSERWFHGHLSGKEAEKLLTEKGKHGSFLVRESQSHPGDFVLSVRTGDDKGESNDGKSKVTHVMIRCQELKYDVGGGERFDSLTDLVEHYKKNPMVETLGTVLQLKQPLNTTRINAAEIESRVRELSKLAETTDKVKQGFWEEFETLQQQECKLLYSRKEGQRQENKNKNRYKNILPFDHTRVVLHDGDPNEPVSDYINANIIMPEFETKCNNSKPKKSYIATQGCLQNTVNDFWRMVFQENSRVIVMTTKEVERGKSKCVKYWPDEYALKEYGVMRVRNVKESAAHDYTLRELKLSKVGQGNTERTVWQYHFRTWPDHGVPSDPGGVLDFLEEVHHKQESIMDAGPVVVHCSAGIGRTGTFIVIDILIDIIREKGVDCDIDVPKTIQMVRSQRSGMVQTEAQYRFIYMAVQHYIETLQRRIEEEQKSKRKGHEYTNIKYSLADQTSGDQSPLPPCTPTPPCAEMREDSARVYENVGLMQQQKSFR

SMILES | IC50 (SHP2) | IC50 [1]
Cn1cc2c(Cl)c(-c3c[nH]c4nc(N5[C@@H]6CC[C@H]5C[C@H](N)C6)n(C)c(=O)c34)ccc2n1 [Example 10, 2-(exo-3-amino-8-azabicyclo[3.2.1]octan-8-yl)-5-(4-chloro-2-methyl-2H-indazol-5-yl)-3-methyl-3,7-dihydro-4H-pyrrolo[2,3-d]pyrimidin-4-one] | 8.5 nM | 170 nM
CCn1cc2c(Cl)c(-c3c[nH]c4nc(N5CCC6(CCC[C@H]6N)CC5)n(C)c(=O)c34)ccc2n1 [Example 11, (R)-2-(1-amino-8-azaspiro[4.5]decan-8-yl)-5-(4-chloro-2-ethyl-2H-indazol-5-yl)-3-methyl-3,7-dihydro-4H-pyrrolo[2,3-d]pyrimidin-4-one] | 6.3 nM | 53 nM
CCn1cc2c(Cl)c(-c3c[nH]c4nc(N5CCC6(CC5)COC[C@H]6N)n(C)c(=O)c34)ccc2n1 [Example 12, (S)-2-(4-amino-2-oxa-8-azaspiro[4.5]decan-8-yl)-5-(4-chloro-2-ethyl-2H-indazol-5-yl)-3-methyl-3,7-dihydro-4H-pyrrolo[2,3-d]pyrimidin-4-one] | 11 nM | 120 nM
CCn1cc2c(Cl)c(-c3c[nH]c4nc(N5[C@@H]6CC[C@H]5C[C@@H](NC)C6)n(C)c(=O)c34)ccc2n1 [Example 13, 5-(4-chloro-2-ethyl-2H-indazol-5-yl)-3-methyl-2-(endo-3-(methylamino)-8-azabicyclo[3.2.1]octan-8-yl)-3,7-dihydro-4H-pyrrolo[2,3-d]pyrimidin-4-one] | 19 nM | 340 nM
CN[C@H]1C[C@H]2CC[C@@H](C1)N2c1nc2[nH]cc(-c3ccc4nn(C)cc4c3Cl)c2c(=O)n1C [Example 14, 5-(4-chloro-2-methyl-2H-indazol-5-yl)-3-methyl-2-(endo-3-(methylamino)-8-azabicyclo[3.2.1]octan-8-yl)-3,7-dihydro-4H-pyrrolo[2,3-d]pyrimidin-4-one] | 24 nM | 310 nM
CCn1cc2c(Cl)c(-c3c[nH]c4nc(N5[C@@H]6CC[C@H]5C[C@@](C)(N)C6)n(C)c(=O)c34)ccc2n1 [Example 15, 2-(endo-3-amino-3-methyl-8-azabicyclo[3.2.1]octan-8-yl)-5-(4-chloro-2-ethyl-2H-indazol-5-yl)-3-methyl-3,7-dihydro-4H-pyrrolo[2,3-d]pyrimidin-4-one] | 17 nM | 500 nM
Cn1cc2c(Cl)c(-c3c[nH]c4nc(N5[C@@H]6CC[C@H]5C[C@@](C)(N)C6)n(C)c(=O)c34)ccc2n1 [Example 16, 2-(endo-3-amino-3-methyl-8-azabicyclo[3.2.1]octan-8-yl)-5-(4-chloro-2-methyl-2H-indazol-5-yl)-3-methyl-3,7-dihydro-4H-pyrrolo[2,3-d]pyrimidin-4-one] | 11 nM | 110 nM
Cn1cc2c(Cl)c(-c3c[nH]c4nc(N5CC6COCC(C5)N6)n(C)c(=O)c34)ccc2n1 [Example 17, 2-(3-oxa-7,9-diazabicyclo[3.3.1]nonan-7-yl)-5-(4-chloro-2-methyl-2H-indazol-5-yl)-3-methyl-3,7-dihydro-4H-pyrrolo[2,3-d]pyrimidin-4-one] | 43 nM | 800 nM
Cn1cc2c(Cl)c(-c3c[nH]c4nc(N5C[C@@H]6C[C@H]5CN6)n(C)c(=O)c34)ccc2n1 [Example 21, 2-((1S,4S)-2,5-diazabicyclo[2.2.1]heptan-2-yl)-5-(4-chloro-2-methyl-2H-indazol-5-yl)-3-methyl-3,7-dihydro-4H-pyrrolo[2,3-d]pyrimidin-4-one] | 11 nM | 320 nM
Cn1cc2c(Cl)c(-c3c[nH]c4nc(N5C6COCC5CC(N)C6)n(C)c(=O)c34)ccc2n1 (stereo not drawn) [Example 22, 2-(7-amino-3-oxa-9-azabicyclo[3.3.1]nonan-9-yl)-5-(4-chloro-2-methyl-2H-indazol-5-yl)-3-methyl-3,7-dihydro-4H-pyrrolo[2,3-d]pyrimidin-4-one] | 14 nM | 2200 nM
Cn1cc2c(Cl)c(-c3c[nH]c4nc(N5C[C@H]6C[C@@H]5CN6)n(C)c(=O)c34)ccc2n1 [Example 23, 2-((1R,4R)-2,5-diazabicyclo[2.2.1]heptan-2-yl)-5-(4-chloro-2-methyl-2H-indazol-5-yl)-3-methyl-3,7-dihydro-4H-pyrrolo[2,3-d]pyrimidin-4-one] | 120 nM | 4100 nM
Cn1cc2c(Cl)c(-c3c[nH]c4nc(N5C[C@H]6CC[C@@H](C5)[C@@H]6N)n(C)c(=O)c34)ccc2n1 [Example 24, 2-(exo-8-amino-3-azabicyclo[3.2.1]octan-3-yl)-5-(4-chloro-2-methyl-2H-indazol-5-yl)-3-methyl-3,7-dihydro-4H-pyrrolo[2,3-d]pyrimidin-4-one] | 18 nM | 140 nM
Cn1cc2c(Cl)c(-c3c[nH]c4nc(N5C[C@H]6CC[C@@H](C5)[C@H]6N)n(C)c(=O)c34)ccc2n1 [Example 25, 2-(endo-8-amino-3-azabicyclo[3.2.1]octan-3-yl)-5-(4-chloro-2-methyl-2H-indazol-5-yl)-3-methyl-3,7-dihydro-4H-pyrrolo[2,3-d]pyrimidin-4-one] | 35 nM | 430 nM
Cn1cc2c(Cl)c(-c3c[nH]c4nc(N5C6CCCC5CNC6)n(C)c(=O)c34)ccc2n1 [Example 27, 2-(3,9-diazabicyclo[3.3.1]nonan-9-yl)-5-(4-chloro-2-methyl-2H-indazol-5-yl)-3-methyl-3,7-dihydro-4H-pyrrolo[2,3-d]pyrimidin-4-one] | 7 nM | 46 nM
Cn1cc2c(Cl)c(-c3c[nH]c4nc(N5CC6CCC(C5)N6)n(C)c(=O)c34)ccc2n1 [Example 28, 2-(3,8-diazabicyclo[3.2.1]octan-3-yl)-5-(4-chloro-2-methyl-2H-indazol-5-yl)-3-methyl-3,7-dihydro-4H-pyrrolo[2,3-d]pyrimidin-4-one] | 19 nM | 680 nM
Cn1cc2c(Cl)c(-c3c[nH]c4nc(N5C6CNCC5C6)n(C)c(=O)c34)ccc2n1 [Example 29, 2-(3,6-diazabicyclo[3.1.1]heptan-6-yl)-5-(4-chloro-2-methyl-2H-indazol-5-yl)-3-methyl-3,7-dihydro-4H-pyrrolo[2,3-d]pyrimidin-4-one] | 220 nM | 2400 nM
Cn1cc2c(Cl)c(-c3c[nH]c4nc(N5CC6CCCC(C5)N6)n(C)c(=O)c34)ccc2n1 [Example 30, 2-(3,9-diazabicyclo[3.3.1]nonan-3-yl)-5-(4-chloro-2-methyl-2H-indazol-5-yl)-3-methyl-3,7-dihydro-4H-pyrrolo[2,3-d]pyrimidin-4-one] | 9.7 nM | 220 nM
Cn1cc2c(Cl)c(-c3c[nH]c4nc(N5CC6CC(C5)N6)n(C)c(=O)c34)ccc2n1 [Example 31, 2-(3,6-diazabicyclo[3.1.1]heptan-3-yl)-5-(4-chloro-2-methyl-2H-indazol-5-yl)-3-methyl-3,7-dihydro-4H-pyrrolo[2,3-d]pyrimidin-4-one] | 40 nM | 1000 nM
Cn1cc2c(Cl)c(-c3c[nH]c4nc(N5CC6CCC5CN6)n(C)c(=O)c34)ccc2n1 (stereo not drawn) [Example 32, 2-(2,5-diazabicyclo[2.2.2]octan-2-yl)-5-(4-chloro-2-methyl-2H-indazol-5-yl)-3-methyl-3,7-dihydro-4H-pyrrolo[2,3-d]pyrimidin-4-one] | 17 nM | 920 nM
Cn1cc2c(Cl)c(-c3c[nH]c4nc(N5C[C@H]6C[C@@H](C5)[C@@H]6N)n(C)c(=O)c34)ccc2n1 [Example 33, 2-(exo-6-amino-3-azabicyclo[3.1.1]heptan-3-yl)-5-(4-chloro-2-methyl-2H-indazol-5-yl)-3-methyl-3,7-dihydro-4H-pyrrolo[2,3-d]pyrimidin-4-one] | 47 nM | 480 nM
Cn1cc2c(Cl)c(-c3c[nH]c4nc(N5C[C@H]6C[C@@H](C5)[C@H]6N)n(C)c(=O)c34)ccc2n1 [Example 34, 2-(endo-6-amino-3-azabicyclo[3.1.1]heptan-3-yl)-5-(4-chloro-2-methyl-2H-indazol-5-yl)-3-methyl-3,7-dihydro-4H-pyrrolo[2,3-d]pyrimidin-4-one] | 160 nM | 2300 nM
